Experimental data: patent publication US9670548B2, “Methods of diagnosing colorectal cancer by detecting FADA expression” (priority 2013, dated 2017)

Experiments:
HCT116 [1] = experiment: Real-time quantitative PCR (qPCR) of HCT116; type: cell-based, human; settings: for inhibition of activation of inflammatory genes, mRNA / inhibition of activation of tumor growth genes (Wnt, oncogenes), mRNA: FadAc, 2 hrs incubation
Experimental: (§1) Total RNA was extracted from CRC cells, xenografts, or clinical specimens. cDNA synthesis and RT-PCR were performed as previously described, using primers listed in Table 1. Data were analyzed by the ΔΔCt method and normalized to the GAPDH or Fn-specific 16S rRNA. To quantify the fadA gene copies, plasmid carrying fadA was serially diluted to 10^2-10^8 fadA copies/μl and used to generate standard curves for Ct values. The fadA gene copies in the clinical samples were calculated based on the standard curves. Each experiment was performed in triplicates and repeated at least three times.

[2] = system: E-cadherin-mediated cellular signaling in HCT116; experiment: Subcellular fractions of HCT116, Western blot; type: cell-based, human; settings: 50 μM inhibitor pre-incubated 1 hour, FadAc
From the text: The following antibodies were used: anti-FadA monoclonal antibody (mAb) 5G11-3G8 (Xu et al., 2007), mAb anti-CDH1 (Abcam or Cell Signaling Tech), polyclonal anti-phospho-CDH1 (ECM Biosciences), mAb anti-GAPDH (Invitrogen), mAb anti-β-catenin (R&D systems), polyclonal anti-phospho-β-catenin (Cell Signaling Tech), mAb anti-LEF/TCF1 (Invitrogen), mAb anti-NFkB (Invitrogen), mAb anti-Myc (Cell Signaling Tech), mAb anti-cyclin D1 (Cell Signaling Tech), mAb anti-EGFR (Cell Signaling Tech), mAb anti-GAPDH (Cell Signaling Tech), mAb anti-PCNA (Cell Signaling Tech), polyclonal goat-anti-mouse or goat-anti-rabbit secondary antibody conjugated with horseradish peroxidase (HRP) (Pierce Biotechnology). Peptides were synthesized by Neo Group, Inc (Cambridge, Mass.). Western blot analyses were performed as previously described.
Cells were incubated with 1 mg/ml of FadAc or mFadA followed by the extraction of subcellular fractions. When indicated, 50 μM of the corresponding protein tyrosine kinase inhibitor (Genistein) and clathrin inhibitor (Pitstop2) were pre-incubated with cells for 1 hour. Membrane, cytosolic and nuclei fractions were prepared using the Compartmental Protein Extraction kit (Millipore) according to the manufacturer's instructions.

Fn [3] = experiment: Tissue culture attachment assay, Fn on HCT116; type: cell-based, Fusobacterium nucleatum; settings: for inhibition of Fn attachment of HCT116: MOI 50, 1 hr
Experimental: (§2) Cells were seeded in 24-well or 96-well plates at 8×10^4 cells or 2.5×10^4 cells per well in the growth medium and grown to 100% confluent. Bacteria were added to the cells at a multiplicity of infection (MOI) of 50. Following 1 hr incubation at 37° C. in 5% CO2, the monolayers were washed 3 times with D-PBS, pH 7.1, supplemented with Ca^2+ and Mg^2+. Cells were lyzed with water for 20 min at 37° C. Serial dilutions of the lysates were plated onto blood agar plates to enumerate the total cell-associated bacteria. For invasion assays, the bacteria were incubated with the monolayers at 37° C. for 4 hrs, followed by washes with PBS. Fresh media containing 300 μg/ml gentamicin and 200 μg/ml metronidazole were added to the monolayers and incubated for an additional hour to kill extracellular bacteria. The cells were then washed and lyzed with water as described above. The levels of attachment and invasion were expressed as the percentage of bacteria recovered following cell lysis relative to the total number of bacteria initially added. Each experiment was performed in triplicates and repeated at least twice.

Fn [4] = experiment: Tissue culture invasion assay, Fn into HCT116; type: cell-based, Fusobacterium nucleatum; settings: for inhibition of Fn invasion of HCT116: MOI 50, 4 hrs
Experimental: as §2

HCT116 xenografts [5] = experiment: qPCR of HCT116 xenografts; type: in vivo, mice; settings: FadAc or wild-type Fn
Experimental: (§3) The animal protocol was approved by the Case Western Reserve University Institutional Animal Care and Use Committee. An inoculum of 5×10^6 cells were injected s.c. and bilaterally into 4- to 6-week-old female nude mice (5 per group) as previously described. The mice were randomized to receive one of the following: FadAc or mFadA (each at 80 μg), BSA (0.01 μmol, i.e., 660 μg), or peptide (0.01 μmol), or bacteria at 1×10^7 cfu, at each inoculation site.
as §1

[6] = system: Fusobacterium nucleatum (Fn); experiment: Fn attachment of endothelial cells; type: cell-based; settings: FIG. 8
Experimental: as §2

[7] = system: Fusobacterium nucleatum (Fn); experiment: Fn invasion of endothelial cells; type: cell-based; settings: FIG. 8
Experimental: as §2

HCT116 [8] = experiment: Cell proliferation assay, HCT116; type: cell-based, human; settings: bacteria at MOI 1000:1
Experimental: (§4) CRC cells were seeded in 24-well plates at 1×10^4 cells per well in the growth medium. Cells were untreated, or incubated with FadAc or peptides at indicated concentration, or with bacteria at a multiplicity of infection (MOI) of 1000:1. Cell numbers were counted at 24-hour intervals using a hemocytometer. Each experiment was performed in triplicates and repeated at least twice.

[9] = system: RKO cells transfected with CDH1; experiment: Cell proliferation assay, RKO cells transfected with CDH1; type: cell-based, human; settings: bacteria at MOI 1000:1
Experimental: CDH1 transfections were performed as previously described. siRNA assays were performed using the FlexiTube siRNA anti-CDH1 or anti-beta-catenin reagent and All Stars FlexiTube Control siRNA from Qiagen (Valencia, Calif.) according the manufacturer's instructions.
as §4

Fn [10] = experiment: Immunohistochemical staining of Fn-infected HCT116 xenografts; type: in vivo, Fusobacterium nucleatum; settings: wild-type Fn injected into HCT116 xenografts
Experimental: Immunofluorescent staining of cells was performed as previously described. Mouse anti-β-catenin mAb and Alexa Fluor 634-conjugated goat anti-mouse polyclonal antibodies were used. IHC analysis of xenograft tumors were performed as previously described, using rabbit anti-Fn polyclonal antibodies. Pre-immune serum from the same rabbit was used as control.
as §3

HCT116 xenografts [11] = experiment: HCT116 xenograft tumor growth in nude mice; type: in vivo; settings: 0.01 μmol peptide with FadAc
Experimental: as §3

O=C1NC(=NS(=O)(=O)c2cccc3ccccc23)S/C1=C\c1ccc(Br)cc1 [Pitstop2]
inhibition of activation of inflammatory genes, mRNA (HCT116 [1]): only inhibited the inflammatory genes | inhibition of activation of tumor growth genes (Wnt, oncogenes), mRNA (HCT116 [1]): not | effect on Fn-stimulated expression of NF-kappaB and cytokines IL-6, 8, and 18 (HCT116 [1]; wild type Fn): abolished | effect of inhibitor on CRT activation (β-catenin translocation, LEF/TCF, Wnt and oncogenes) [2]: unaffected | effect of inhibitor on E-cadherin phosphorylation [2]: did not affect | effect of inhibitor on FadA and E-cadherin internalization [2]: inhibited | effect of inhibitor on FadA binding to the membranes [2]: did not affect | effect of inhibitor on NF kappaB activation [2]: no NF kappaB activation was observed | inhibition of Fn attachment of HCT116 (Fn [3]): without affecting attachment | inhibition of Fn invasion of HCT116 (Fn [4]): prevented

ASANWTIQYND [inhibitory peptide]
inhibition of stimulation of tumor growth genes and inflammatory genes in xenografts (HCT116 xenografts [5]): inhibited | block of Fn attachment of endothelial cells [6]: block | block of Fn invasion of endothelial cells [7]: block | inhibition of Fn-stimulated HCT116 growth (HCT116 [8]): inhibited | inhibition of Fn attachment of HCT116 (Fn [3]): minimum required | suppression of Fn growth stimulation of CDH1-transfected RKO cells [9]: diminished | prevention of Fn invasion into tumor tissues (Fn [10]): prevented | inhibition of Fn invasion of HCT116 (Fn [4]): minimum required | effect of peptide on FadAc-stimulated tumor growth (HCT116 xenografts [11]): No increase was detected

O=c1c(-c2ccc(O)cc2)coc2cc(O)cc(O)c12 [Genistein]
inhibition of activation of inflammatory genes, mRNA (HCT116 [1]): inhibited | inhibition of activation of tumor growth genes (Wnt, oncogenes), mRNA (HCT116 [1]): inhibited | effect of inhibitor on CRT activation (β-catenin translocation, LEF/TCF, Wnt and oncogenes) [2]: abolished | effect of inhibitor on E-cadherin phosphorylation [2]: prevented | effect of inhibitor on FadA and E-cadherin internalization [2]: prevented | effect of inhibitor on FadA binding to the membranes [2]: abolished

B1: GST-EC5 fusion protein: purified GST fusion protein carrying the EC5 domain of E-cadherin (protein)
chain: IPEPRTIFFCERNPKPQVINIIDADLPPNTSPFTAELTHGASANWTIQYNDPTQESIILKPKMALEVGDYKINLKLMDNQNKDQVTTLEVSVCDCEGAAGVCRK
modifications: left off: a dimerising Fc or GST
notes: purified GST fusion protein carrying the EC5 domain of E-cadherin
inhibition of Fn-stimulated HCT116 growth (HCT116 [8]): inhibited | concentration of maximum inhibition of Fn attachment of HCT116 (Fn [3]): 0.1 µM | inhibition of Fn attachment of HCT116 (Fn [3]): inhibited by purified GST-EC5 fusion protein in a dose-dependent manner | suppression of Fn growth stimulation of CDH1-transfected RKO cells [9]: diminished | concentration of maximum inhibition of Fn invasion of HCT116 (Fn [4]): 0.1 µM | inhibition of Fn invasion of HCT116 (Fn [4]): inhibited by purified GST-EC5 fusion protein in a dose-dependent manner
